Laboratory results published in article PMC6979384, “Characterization of the plant homeodomain (PHD) reader family for their histone tail interactions” (Epigenetics & Chromatin, 2020).

What was measured:
Experiment in all cases: Histone peptide microarray
Type in all cases: binding, human
[1] = system: AIRE (PP)
Outline: (§1)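 Recombinant GST-PHD protein at 0.5 μM; 293-member modified histone peptide array; signals averaged from four repeats ± SD.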

[2] = system: BAZ2B
Outline: as §1

[3] = system: BPTF (PB)
Outline: as §1

[4] = system: CHD4 (PPCC)
Outline: as §1

[5] = system: CHD5 (PCC)
Outline: as §1

[6] = system: CHD5 (PPCC)
Outline: as §1

[7] = system: DIDO1
Outline: as §1

[8] = system: DPF2 (PPC2W2)
Outline: as §1

[9] = system: ING1
Outline: as §1

[10] = system: ING2
Outline: as §1

[11] = system: ING3
Outline: as §1

[12] = system: ING4
Outline: as §1

[13] = system: ING5
Outline: as §1

[14] = system: KDM4C (TTP)
Outline: as §1

[15] = system: KDM5A (1)
Outline: as §1

[16] = system: KDM5A (3)
Outline: as §1

[17] = system: KDM5B (1)
Outline: as §1

[18] = system: KDM5B (3)
Outline: as §1

[19] = system: KDM7A
Outline: as §1

[20] = system: MLL5
Outline: as §1

[21] = system: MORC3 (CW)
Outline: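 Each reader, produced as a GST fusion and purified, was tested at 0.5 μM on synthetic histone peptides (293 in total) carrying single or combinatorial marks. Intensities averaged over four replicates.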

[22] = system: PHF13
Outline: as §1

[23] = system: PHF21A
Outline: as §1

[24] = system: PHF23
Outline: as §1

[25] = system: PHF2
Outline: as §1

[26] = system: PHF8
Outline: as §1

[27] = system: PHRF1 (RP)
Outline: as §1

[28] = system: RAG2
Outline: as §1

[29] = system: SP140L
Outline: as §1

[30] = system: TAF3
Outline: as §1

[31] = system: TRIM66 (PB)
Outline: as §1

[32] = histone peptide array, GST-tagged reader, arrays performed twice, n of 4
[33] = histone peptide array, GST-tagged reader, PB = PHD + Bromodomain, arrays performed twice, n of 4
[34] = histone peptide array, GST-tagged reader, PPCC = Dual PHD + Dual Chromodomain, arrays performed twice, n of 4
[35] = sheet "Array Heatmap", GST-tagged reader, histone peptide array, total n = 4

H3.3 75-94: H3.3 120-135
Array Heatmap signal, AIRE (PP) ([1]; sheet "Array Heatmap", GST-tagged AIRE (PP), arrays performed twice, total replicate number n = 4): 0.502 | Array Heatmap signal, BAZ2B ([2]; sheet "Array Heatmap", GST-tagged BAZ2B, arrays performed twice, total replicate number n = 4): 0.4527 | Array Heatmap signal, BPTF (PB) ([3]; sheet "Array Heatmap", GST-tagged BPTF (PB), arrays performed twice, total replicate number n = 4): 0.3448 | Array Heatmap signal, CHD4 (PPCC) ([4]; sheet "Array Heatmap", GST-tagged CHD4 (PPCC), arrays performed twice, total replicate number n = 4): 0.5423 | Array Heatmap signal, CHD5 (PCC) ([5]; sheet "Array Heatmap", GST-tagged CHD5 (PCC), arrays performed twice, total replicate number n = 4): 0.7355 | Array Heatmap signal, CHD5 (PPCC) ([6]; sheet "Array Heatmap", GST-tagged CHD5 (PPCC), arrays performed twice, total replicate number n = 4): 0.563 | Array Heatmap signal, DIDO1 ([7]; sheet "Array Heatmap", GST-tagged DIDO1, arrays performed twice, total replicate number n = 4): 0.6416 | Array Heatmap signal, DPF2 (PPC2W2) ([8]; sheet "Array Heatmap", GST-tagged DPF2 (PPC2W2), arrays performed twice, total replicate number n = 4): 0.6426 | Array Heatmap signal, ING1 ([9]; sheet "Array Heatmap", GST-tagged ING1, arrays performed twice, total replicate number n = 4): 0.5031 | Array Heatmap signal, ING2 ([10]; sheet "Array Heatmap", GST-tagged ING2, arrays performed twice, total replicate number n = 4): 0.5986 | Array Heatmap signal, ING3 ([11]; sheet "Array Heatmap", GST-tagged ING3, arrays performed twice, total replicate number n = 4): 0.473 | Array Heatmap signal, ING4 ([12]; sheet "Array Heatmap", GST-tagged ING4, arrays performed twice, total replicate number n = 4): 0.4549 | Array Heatmap signal, ING5 ([13]; sheet "Array Heatmap", GST-tagged ING5, arrays performed twice, total replicate number n = 4): 0.3621 | Array Heatmap signal, KDM4C (TTP) ([14]; sheet "Array Heatmap", GST-tagged KDM4C (TTP), arrays performed twice, total replicate number n = 4): 0.5145 | Array Heatmap signal, KDM5A (1) ([15]; sheet "Array Heatmap", GST-tagged KDM5A (1), arrays performed twice, total replicate number n = 4): 0.468 | Array Heatmap signal, KDM5A (3) ([16]; sheet "Array Heatmap", GST-tagged KDM5A (3), arrays performed twice, total replicate number n = 4): 0.454 | Array Heatmap signal, KDM5B (1) ([17]; sheet "Array Heatmap", GST-tagged KDM5B (1), arrays performed twice, total replicate number n = 4): 0.6676 | Array Heatmap signal, KDM5B (3) ([18]; sheet "Array Heatmap", GST-tagged KDM5B (3), arrays performed twice, total replicate number n = 4): 0.4774 | Array Heatmap signal, KDM7A ([19]; sheet "Array Heatmap", GST-tagged KDM7A, arrays performed twice, total replicate number n = 4): 0.3506 | Array Heatmap signal, MLL5 ([20]; sheet "Array Heatmap", GST-tagged MLL5, arrays performed twice, total replicate number n = 4): 0.5079 | Array Heatmap signal, MORC3 (CW) ([21]; sheet "Array Heatmap", GST-tagged MORC3 (CW), arrays performed twice, total replicate number n = 4): 0.3704 | Array Heatmap signal, PHF13 ([22]; sheet "Array Heatmap", GST-tagged PHF13, arrays performed twice, total replicate number n = 4): 0.6071 | Array Heatmap signal, PHF21A ([23]; sheet "Array Heatmap", GST-tagged PHF21A, arrays performed twice, total replicate number n = 4): 0.449 | Array Heatmap signal, PHF23 ([24]; sheet "Array Heatmap", GST-tagged PHF23, arrays performed twice, total replicate number n = 4): 0.5259 | Array Heatmap signal, PHF2 ([25]; sheet "Array Heatmap", GST-tagged PHF2, arrays performed twice, total replicate number n = 4): 0.46 | Array Heatmap signal, PHF8 ([26]; sheet "Array Heatmap", GST-tagged PHF8, arrays performed twice, total replicate number n = 4): 0.3469 | Array Heatmap signal, PHRF1 (RP) ([27]; sheet "Array Heatmap", GST-tagged PHRF1 (RP), arrays performed twice, total replicate number n = 4): 0.4716 | Array Heatmap signal, RAG2 ([28]; sheet "Array Heatmap", GST-tagged RAG2, arrays performed twice, total replicate number n = 4): 0.2477 | Array Heatmap signal, SP140L ([29]; sheet "Array Heatmap", GST-tagged SP140L, arrays performed twice, total replicate number n = 4): 0.3784 | Array Heatmap signal, TAF3 ([30]; sheet "Array Heatmap", GST-tagged TAF3, arrays performed twice, total replicate number n = 4): 0.2603 | Array Heatmap signal, TRIM66 (PB) ([31]; sheet "Array Heatmap", GST-tagged TRIM66 (PB), arrays performed twice, total replicate number n = 4): 0.5407

H3.3 (27-45): H3.3 27-45 (KSAPSTGGVKKPHRYRPGT; UniProt P84243 28-46, looked up, fragment)
Array Heatmap signal, AIRE (PP) [1, 32]: 0.4994 | Array Heatmap signal, BAZ2B [2, 32]: 0.4692 | Array Heatmap signal, BPTF (PB) [3, 33]: 0.34 | Array Heatmap signal, CHD4 (PPCC) [4, 34]: 0.5867 | Array Heatmap signal, CHD5 (PCC) ([5]; histone peptide array, GST-tagged reader, PCC = PHD + Dual Chromodomain, arrays performed twice, n of 4): 0.7947 | Array Heatmap signal, CHD5 (PPCC) [6, 34]: 0.5478 | Array Heatmap signal, DIDO1 [7, 32]: 0.7133 | Array Heatmap signal, DPF2 (PPC2W2) ([8]; histone peptide array, GST-tagged reader, PPC2W2 = Dual PHD + C2W2-type Zn-finger, arrays performed twice, n of 4): 0.6084 | Array Heatmap signal, ING1 [9, 32]: 0.4846 | Array Heatmap signal, ING2 [10, 32]: 0.588 | Array Heatmap signal, ING3 [11, 32]: 0.4546 | Array Heatmap signal, ING4 [12, 32]: 0.4566 | Array Heatmap signal, ING5 [13, 32]: 0.3478 | Array Heatmap signal, KDM4C (TTP) ([14]; histone peptide array, GST-tagged reader, TTP = Tandem Tudor domain + PHD, arrays performed twice, n of 4): 0.5199 | Array Heatmap signal, KDM5A (1) [15, 32]: 0.4676 | Array Heatmap signal, KDM5A (3) [16, 32]: 0.405 | Array Heatmap signal, KDM5B (1) [17, 32]: 0.6276 | Array Heatmap signal, KDM5B (3) [18, 32]: 0.4762 | Array Heatmap signal, KDM7A [19, 32]: 0.4316 | Array Heatmap signal, MLL5 [20, 32]: 0.5451 | Array Heatmap signal, MORC3 (CW) ([21]; histone peptide array, GST-tagged reader, CW = CW-type Zn-finger, arrays performed twice, n of 4): 0.3459 | Array Heatmap signal, PHF13 [22, 32]: 0.5824 | Array Heatmap signal, PHF21A [23, 32]: 0.4761 | Array Heatmap signal, PHF23 [24, 32]: 0.5188 | Array Heatmap signal, PHF2 [25, 32]: 0.4329 | Array Heatmap signal, PHF8 [26, 32]: 0.3699 | Array Heatmap signal, PHRF1 (RP) [27, 32]: 0.4032 | Array Heatmap signal, RAG2 [28, 32]: 0.2569 | Array Heatmap signal, SP140L [29, 32]: 0.3705 | Array Heatmap signal, TAF3 [30, 32]: 0.2584 | Array Heatmap signal, TRIM66 (PB) [31, 33]: 0.5678

H3.3K18ac + K23ac + K27ac + S28p: H3.3 15-34
Array Heatmap signal, AIRE (PP) [1, 35]: 0.4033 | Array Heatmap signal, BAZ2B [2, 35]: 0.4455 | Array Heatmap signal, BPTF (PB) [3, 35]: 0.3427 | Array Heatmap signal, CHD4 (PPCC) [4, 35]: 0.5345 | Array Heatmap signal, CHD5 (PCC) [5, 35]: 0.7419 | Array Heatmap signal, CHD5 (PPCC) [6, 35]: 0.5304 | Array Heatmap signal, DIDO1 [7, 35]: 0.747 | Array Heatmap signal, DPF2 (PPC2W2) [8, 35]: 0.6362 | Array Heatmap signal, ING1 [9, 35]: 0.5496 | Array Heatmap signal, ING2 [10, 35]: 0.6018 | Array Heatmap signal, ING3 [11, 35]: 0.4727 | Array Heatmap signal, ING4 [12, 35]: 0.4374 | Array Heatmap signal, ING5 [13, 35]: 0.3405 | Array Heatmap signal, KDM4C (TTP) [14, 35]: 0.4483 | Array Heatmap signal, KDM5A (1) [15, 35]: 0.4461 | Array Heatmap signal, KDM5A (3) [16, 35]: 0.436 | Array Heatmap signal, KDM5B (1) [17, 35]: 0.64 | Array Heatmap signal, KDM5B (3) [18, 35]: 0.4567 | Array Heatmap signal, KDM7A [19, 35]: 0.3117 | Array Heatmap signal, MLL5 [20, 35]: 0.5576 | Array Heatmap signal, MORC3 (CW) [21, 35]: 0.3503 | Array Heatmap signal, PHF13 [22, 35]: 0.5819 | Array Heatmap signal, PHF21A [23, 35]: 0.4374 | Array Heatmap signal, PHF23 [24, 35]: 0.5591 | Array Heatmap signal, PHF2 [25, 35]: 0.5396 | Array Heatmap signal, PHF8 [26, 35]: 0.3574 | Array Heatmap signal, PHRF1 (RP) [27, 35]: 0.4303 | Array Heatmap signal, RAG2 [28, 35]: 0.2492 | Array Heatmap signal, SP140L [29, 35]: 0.326 | Array Heatmap signal, TAF3 [30, 35]: 0.2571 | Array Heatmap signal, TRIM66 (PB) [31, 35]: 0.5994
